In this assay the test system is M. tuberculosis H37Rv growth inhibition, 7H9 media. The assay can be described thus: M. tuberculosis growth inhibition, HTS (AID 449762).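 On all read-outs here: bacterial growth assessed after seven days of incubation.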 The following applies: for IC90: measured here: IC90 growth inhibition.

Structures are written as SMILES. pIC50: −log10 of the molar value. Results filed as inconclusive are left out. Some results are limits rather than exact numbers.

As usually defined, the pIC50 is the IC50 on a negative log10 scale, so that one unit is a factor of ten. A word on the IC90: it is the point of the concentration-response curve where the effect stands at 90%.

Regarding `COC(=O)COc1ccc(-c2nn(C)c(=O)c3ccccc23)cc1`, the pIC50 was 5.75 and the IC90 was found to be 27.5 µM. The like results for `CCN(CCNCC(O)COc1ccccc1C(C)C)c1cccc(C)c1` (stereo not drawn) were, in that order, 4.67 and 28.1 µM. The like results for `COc1ccc(-c2ccc(OC)c([C@H]3[C@@H]4C=CCC[C@@]4(C)C(=O)N3Cc3ccccc3)c2)cc1OC` were, in that order, 4.88 and 24.8 µM. The like results for `COc1ccc(/C=N/OCC(=O)OCC(=O)N(C)c2ccccc2)cc1` were, in that order, 5.09 and 39.1 µM. With `CCN(CC)c1ccc(N)cc1`, the pIC50 is 5.15 and the IC90 was determined as 9.95 µM. For the molecule `O=C(N/N=C/c1cn(-c2ccccc2)nc1-c1cccs1)c1ccc(Cl)cc1`, the IC90 is over 100 µM. For the molecule `CC12CCC(=O)N1C(C(=O)Nc1ccc(SC(F)F)cc1)CS2` (stereo not drawn), the negative-log IC50 (pIC50) is 4.52 and the IC90 is 63.1 µM. `CCOc1ccc(/C=C/C2=Cc3c(sc(NC(=O)CSc4n[nH]c(N)n4)c3C#N)C(C)(C)C2)cc1` gave a 90% effect concentration (IC90) of over 100 µM.

On to `CC(C)CC[n+]1ccccc1/C=C/c1ccc(N(C)C)cc1`, for which the pIC50 was 5.28 and the IC90 amounted to 8.41 µM. The like results for `CCOc1ccc(-n2c(O)c(/C=N/Nc3nnc(C)c(=O)[nH]3)c3ccccc3c2=O)cc1` were, in that order, 4.95 and over 100 µM. The like results for `Cc1c(CCC(=O)NCCCn2ccnc2)c(=O)oc2c(C)c3occ(C(C)(C)C)c3cc12` were, in that order, 4.64 and 36.3 µM.

Regarding `CCN(C[C@H]1N[C@@](Cc2ccccc2)(C(=O)OC)[C@H]2C(=O)N(Cc3ccccc3)C(=O)[C@@H]12)C(=O)Nc1ccc(C(F)(F)F)cc1`, the negative-log IC50 (pIC50) is 4.98 and the IC90 was 11.4 µM.

Take `Cc1ccc(-c2ccc(/C=N/c3ncn[nH]3)o2)cc1Cl`: the negative-log IC50 (pIC50) was 4.01 and the IC90 is over 100 µM. With `O=C(Nc1nc(-c2cc(Cl)sc2Cl)cs1)c1cccs1`, the negative logarithm of the IC50 (pIC50) was 4.53 and the 90% effect concentration (IC90) was over 100 µM.

For the molecule `CCN1/C(=C/C=C/c2oc3ccc(-c4ccccc4)cc3[n+]2CC)Oc2ccc(-c3ccccc3)cc21`, the negative logarithm of the IC50 (pIC50) is 5.43 and the concentration for an effect of 90% (IC90) was found to be 4.74 µM. The like results for `CN(CCCC1CCCC1)C(=O)CCc1nnc(-c2ccccc2)o1` were, in that order, 5.14 and 20.1 µM. Turning to `COC(=O)c1c(NC(=S)NN2CCN(C)CC2)sc2c1CCC(C)C2` (stereo not drawn), the pIC50 is 4.64 and the IC90 turned out to be 25.9 µM. The like results for `CCCCC(CC)CN=C(N)NC(N)=NCCCCCCN=C(N)NC(N)=NCC(CC)CCCC` (stereo not drawn) were, in that order, 5.44 and 4.76 µM. The like results for `CCOc1cc(/C=N/Nc2nc(Nc3ccccc3)nc(N3CCCCC3)n2)ccc1OCC(=O)O` were, in that order, 5.15 and 23.4 µM. The like results for `Nc1ccc(S(=O)(=O)Nc2cnc3ccccc3n2)cc1` were, in that order, 4.58 and 52 µM. With `CCCCn1cnc2cc(NCc3cccc(OC)c3O)ccc21`, the pIC50 was 4.10 and the 90% effect concentration (IC90) was over 100 µM. The like results for `Cc1ccc(CNc2ccc3c(c2)ncn3C(C)(C)C)cc1` were, in that order, 5.13 and 14.8 µM. The like results for `CS(=O)(=O)c1ncc(Cl)c(C(=O)Nc2ccc(OC(F)F)cc2)n1` were, in that order, 5.25 and 15.5 µM. The like results for `Cc1ccccc1NC(=O)Cc1nc(COC(=O)/C=C/c2ccccc2)cs1` were, in that order, 4.39 and 63 µM. For `Cc1c2c(nc3ccccc13)CCC(C)C2` (stereo not drawn), the negative logarithm of the IC50 (pIC50) is 4.47 and the IC90 was 61.8 µM. Molecule `Cn1ccnc1C(O)c1cc(C(C)(C)C)c(O)c(C(C)(C)C)c1` (stereo not drawn) yielded a 90% effect concentration (IC90) of over 100 µM. With `Cc1ccc2nc(-c3cccc(Br)c3)cc(C(=O)NC3=NCCS3)c2c1`, the negative-log IC50 (pIC50) is 4.85 and the IC90 came to 28.9 µM.

On to `O=C(CCC(=O)OCc1ccc(C(=O)Oc2ccc(Cl)cc2)cc1)Nc1ccccc1`, for which the negative logarithm of the IC50 (pIC50) was 4.78 and the concentration for an effect of 90% (IC90) worked out at 44 µM. Turning to `Cc1ccc(NS(=O)(=O)c2ccc(NC(=O)CN(c3cc([N+](=O)[O-])ccc3C)S(C)(=O)=O)cc2)c(C)c1`, the negative-log IC50 (pIC50) was 4.38 and the IC90 was over 100 µM. The like results for `CC(NC(=O)CCl)c1ccc(Cl)c(Cl)c1` (stereo not drawn) were, in that order, 5.93 and 2.91 µM.

On to `CCCCOc1ccc(C(=O)Oc2ccc(C)nc2)cc1`, for which the pIC50 is 4.86 and the IC90 was 72.3 µM.

For `COc1ccccc1/C(C)=N/NC(=S)NCc1ccccc1`, the negative logarithm of the IC50 (pIC50) was 4.63 and the IC90 amounted to 26.6 µM. The like results for `COc1ccccc1NC(=O)c1ccc(NC(=O)CSc2nnnn2C)cc1` were, in that order, 5.54 and 13.8 µM. The like results for `O=C(OCc1ccccc1)/C(=C(\O)c1ccccc1Br)c1ccc(-c2ccccc2)cn1` were, in that order, 4.62 and 45.8 µM.

`Nc1ccc(-c2nc3nc(N)nc(N)c3nc2-c2ccc(N)cc2)cc1`: the pIC50 was 4.37 and the IC90 amounted to 57.5 µM. The like results for `CCCCNC(=S)N(C)/N=C/c1ccc2c(c1)OCO2` were, in that order, 4.91 and 20.4 µM. The like results for `Cc1ccc2c(c1)c(C1=c3ccccc3=NC1=O)c(O)n2C` were, in that order, 5.93 and 3.07 µM. The like results for `CCOC(=O)C1CCCN(c2ncnc3c2cnn3-c2ccc(OC)cc2)C1` (stereo not drawn) were, in that order, 5.64 and 10.7 µM. With `CCCOC(=O)/C(=C\c1ccc([N+](=O)[O-])o1)NC(=O)c1ccccc1`, the negative logarithm of the IC50 (pIC50) was 4.96 and the 90% effect concentration (IC90) was 16.2 µM. The like results for `COc1ccc(NS(=O)(=O)c2ccc3nc(COc4cccc5ccccc45)[nH]c3c2)cc1` were, in that order, 4.20 and over 100 µM. Consider `Cc1ccc(S(=O)(=O)N2CCC(C(=O)OCc3ccccc3)CC2)cc1C`, for which the pIC50 is 4.66 and the 90% effect concentration (IC90) worked out at 40.6 µM. The like results for `Cc1c(C(=O)Nc2nc3ccccc3[nH]2)oc2c(Cl)cccc12` were, in that order, 4.17 and over 100 µM. With `Cc1cc(-c2nnc3n2CCCCC3)c(C)n1-c1ccccc1`, the negative-log IC50 (pIC50) was 4.34 and the IC90 turned out to be 51.4 µM.

Take `NN/C(=C\[N+](=O)[O-])Nc1ccc(Cl)cc1`: the negative logarithm of the IC50 (pIC50) is 4.34 and the IC90 was over 100 µM. Take `O=C(C/C=N\OCc1ccc([N+](=O)[O-])cc1)Nc1ccc(F)cc1F`: the negative-log IC50 (pIC50) is 4.69 and the IC90 came to 98.4 µM.

Turning to `CCOc1ccc(N=CC2=C(O)CC(c3ccco3)CC2=O)cc1` (stereo not drawn), the pIC50 is 4.09 and the IC90 was over 100 µM. The like results for `O=C1C(=O)c2ccccc2-c2ccccc21` were, in that order, 5.20 and 6.91 µM. Consider `Oc1ccccc1/C=N/NC(=S)NC1CC2CC1C1C=CCC21` (stereo not drawn), for which the negative logarithm of the IC50 (pIC50) is 4.96 and the IC90 was determined as 12.3 µM. The like results for `Cc1cc(N2CCN(c3ccc(C(F)(F)F)cc3[N+](=O)[O-])CC2)c2ccccc2n1` were, in that order, 4.67 and 23.7 µM.

As for `O=C(N/N=C\c1ccc[nH]1)c1cncc(Br)c1`, the pIC50 is 4.60 and the concentration for an effect of 90% (IC90) came out at 49 µM. Regarding `FC(F)(F)c1ccc(Nc2nnnc3ccccc23)cc1`, the pIC50 is 4.05 and the 90% effect concentration (IC90) turned out to be 99.6 µM. The like results for `CCc1ccc2c(c1)C1(C(=O)N2)N2CCCC2C(C(=O)c2ccc3ccccc3c2)C12C(=O)Nc1ccccc12` (stereo not drawn) were, in that order, 4.88 and 30.9 µM. The like results for `Cc1ccc(/C=C/S(=O)(=O)NCC(=O)OCC(=O)Nc2c(F)cccc2F)cc1` were, in that order, 5.28 and 13.2 µM.

As for `O=c1c(O)c(-c2cccs2)oc2ccccc12`, the pIC50 is 4.92 and the 90% effect concentration (IC90) is over 100 µM. For `COc1ccc(-c2c[n+]3c4n2CCCCC4=C(c2ccccc2)C3)cc1`, the pIC50 was 4.45 and the IC90 is 43.7 µM. The like results for `O=C(c1cc([N+](=O)[O-])cc([N+](=O)[O-])c1)N(Cc1nnc(-c2ccccc2Cl)o1)C1CC1` were, in that order, 5.59 and 8.42 µM. The like results for `CCOC(=O)COc1ccc2c(c1)C(=O)CC(C)(c1cccnc1)O2` (stereo not drawn) were, in that order, 5.04 and 18.4 µM. The like results for `CN1C(=S)SC(N(O)C(=O)Nc2ccc(Cl)c(Cl)c2)C1(C)C` (stereo not drawn) were, in that order, 4.64 and 25.6 µM.

Regarding `N#Cc1cccc2c1-c1ccccc1/C2=N/NC(N)=O`, the pIC50 was 4.03 and the IC90 was over 100 µM.

As to `C#CCn1c(=NC(=O)c2cc(Cl)sc2Cl)sc2cc(S(N)(=O)=O)ccc21`, the pIC50 was 5.47 and the IC90 was over 100 µM. On to `CN1CCN(c2cc(-c3ccccc3)nc3cc(-c4ccc(F)cc4)nn23)CC1`, for which the negative-log IC50 (pIC50) was 4.94 and the 90% effect concentration (IC90) is 15.7 µM. The like results for `COc1cc2ccccc2cc1C(=O)Nc1ccc(Cc2ccncc2)cc1` were, in that order, 5.65 and 16.8 µM. `CCN(CC)S(=O)(=O)c1ccc2oc(SCC(=O)Nc3cc(C)on3)nc2c1`: the pIC50 is 5.86 and the IC90 was 5.88 µM. The like results for `Cc1cc(-n2c(C)cc(C(=O)COc3ccc4ccc(=O)oc4c3)c2C)no1` were, in that order, 4.16 and over 100 µM. The like results for `CCCCCc1ccc(S(=O)(=O)NCCc2ccncc2)cc1` were, in that order, 4.47 and 42.8 µM.

With `CCCn1nnnc1NC(=O)c1ccc(C)cc1Cl`, the pIC50 was 5.10 and the 90% effect concentration (IC90) was 19.4 µM. For the molecule `Cc1nn(Cc2ccccc2Cl)c2sc(C(=O)NCCCn3ccnc3)cc12`, the negative logarithm of the IC50 (pIC50) is 4.43 and the IC90 turned out to be 49.5 µM. The like results for `COc1cc(/C=C/c2cc[n+](C)cc2)ccc1OCC(=O)Nc1ccc(Cl)c(Cl)c1` were, in that order, 4.66 and 23.5 µM.

As for `CC1CCC(NC(=O)c2cc3c(s2)CCCC3)CC1` (stereo not drawn), the pIC50 is 4.40 and the IC90 was 57.1 µM. The like results for `COc1cccc2sc3ccc(C#CC4(N)CCCCC4)cc3c(=O)c12` were, in that order, 4.21 and 82.2 µM. The like results for `CSc1cccc(NC(=O)CCS(=O)(=O)c2cccc3nonc23)c1` were, in that order, 5.76 and 7.46 µM.

For the molecule `O=C(Nc1cccnc1Cl)c1cc(-c2ccco2)on1`, the pIC50 was 4.38 and the concentration for an effect of 90% (IC90) is over 100 µM. The like results for `O=C1/C(=C\c2ccncc2)CCc2ccccc21` were, in that order, 4.68 and 34.8 µM.
